Reference: article PMC9870012 (Journal of Enzyme Inhibition and Medicinal Chemistry, 2023)

Tests used:
human meprin α = molecular target: T1, human meprin α (Homo sapiens, UniProt Q16819); type: biochemical; conditions: for SF: selectivity factor (Ki(app) meprin β/Ki(app) meprin α): meprin α over meprin β; for Ki: Ki(app) Meprin α, geometric mean of three independent experiments with standard deviation factor
T1 sequence (Q16819 66-746): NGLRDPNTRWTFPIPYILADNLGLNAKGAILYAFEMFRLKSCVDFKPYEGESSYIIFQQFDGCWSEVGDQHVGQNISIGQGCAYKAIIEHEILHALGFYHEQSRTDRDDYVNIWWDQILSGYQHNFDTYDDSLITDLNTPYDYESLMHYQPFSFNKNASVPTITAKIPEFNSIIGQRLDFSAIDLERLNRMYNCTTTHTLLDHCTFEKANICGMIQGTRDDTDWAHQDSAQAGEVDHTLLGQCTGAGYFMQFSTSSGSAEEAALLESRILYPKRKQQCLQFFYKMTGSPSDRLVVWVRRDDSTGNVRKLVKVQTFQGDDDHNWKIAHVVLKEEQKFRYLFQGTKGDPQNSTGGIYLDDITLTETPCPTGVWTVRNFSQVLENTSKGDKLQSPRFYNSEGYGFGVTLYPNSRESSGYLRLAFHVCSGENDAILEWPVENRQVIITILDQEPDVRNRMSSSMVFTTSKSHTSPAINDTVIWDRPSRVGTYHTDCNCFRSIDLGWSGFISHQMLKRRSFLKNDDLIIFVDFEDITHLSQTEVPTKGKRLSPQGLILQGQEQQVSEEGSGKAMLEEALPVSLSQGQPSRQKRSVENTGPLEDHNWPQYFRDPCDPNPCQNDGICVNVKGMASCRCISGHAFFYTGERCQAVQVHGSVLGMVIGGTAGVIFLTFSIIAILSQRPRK

human meprin β = molecular target: T2, human meprin β (Homo sapiens, UniProt Q16820); type: biochemical; conditions: for Ki: Ki(app) Meprin β, geometric mean of three independent experiments with standard deviation factor
T2 sequence (Q16820 62-701): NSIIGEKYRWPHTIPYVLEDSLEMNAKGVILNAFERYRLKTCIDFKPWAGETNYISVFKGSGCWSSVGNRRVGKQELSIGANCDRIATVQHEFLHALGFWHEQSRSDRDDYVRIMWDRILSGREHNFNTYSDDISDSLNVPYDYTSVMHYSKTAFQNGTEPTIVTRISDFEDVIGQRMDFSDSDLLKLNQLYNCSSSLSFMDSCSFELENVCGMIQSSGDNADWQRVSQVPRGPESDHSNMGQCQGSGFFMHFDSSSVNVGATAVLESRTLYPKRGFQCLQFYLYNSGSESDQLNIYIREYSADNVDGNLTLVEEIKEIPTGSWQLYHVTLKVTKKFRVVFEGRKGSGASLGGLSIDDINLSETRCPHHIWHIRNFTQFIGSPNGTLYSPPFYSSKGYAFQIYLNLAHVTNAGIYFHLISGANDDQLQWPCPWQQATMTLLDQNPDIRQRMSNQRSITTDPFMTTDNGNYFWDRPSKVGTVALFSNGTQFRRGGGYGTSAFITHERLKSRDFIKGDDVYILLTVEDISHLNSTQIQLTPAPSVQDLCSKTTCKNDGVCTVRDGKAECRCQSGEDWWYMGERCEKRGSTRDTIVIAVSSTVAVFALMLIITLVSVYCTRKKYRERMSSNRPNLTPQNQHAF

MMP2 = molecular target: T3, MMP2 (Homo sapiens, UniProt P08253); test: Off-target metalloprotease inhibition, MMP2; type: biochemical; conditions: for remaining activity at 10 µM: read-out: Residual activity MMP2
T3 sequence (P08253 110-660): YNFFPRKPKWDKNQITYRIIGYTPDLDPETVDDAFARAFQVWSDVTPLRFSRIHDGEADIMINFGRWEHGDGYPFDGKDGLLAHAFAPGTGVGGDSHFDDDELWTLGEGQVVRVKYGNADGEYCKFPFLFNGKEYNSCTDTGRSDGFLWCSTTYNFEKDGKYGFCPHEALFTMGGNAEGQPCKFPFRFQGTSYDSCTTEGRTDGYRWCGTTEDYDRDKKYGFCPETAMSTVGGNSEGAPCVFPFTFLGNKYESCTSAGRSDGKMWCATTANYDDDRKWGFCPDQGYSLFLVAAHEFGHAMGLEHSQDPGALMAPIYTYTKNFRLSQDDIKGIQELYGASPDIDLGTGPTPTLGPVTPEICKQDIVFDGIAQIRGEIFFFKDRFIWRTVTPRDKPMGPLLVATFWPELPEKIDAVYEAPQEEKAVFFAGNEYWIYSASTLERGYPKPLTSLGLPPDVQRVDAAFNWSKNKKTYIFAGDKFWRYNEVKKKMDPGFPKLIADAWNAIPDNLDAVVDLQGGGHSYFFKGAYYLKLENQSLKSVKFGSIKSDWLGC

MMP9 = MMP9 (Homo sapiens, UniProt P14780); test: Off-target metalloprotease inhibition, MMP9; type: biochemical; conditions: read-out: Residual activity MMP9
MMP9, sequence (P14780 107-707 limits assumed): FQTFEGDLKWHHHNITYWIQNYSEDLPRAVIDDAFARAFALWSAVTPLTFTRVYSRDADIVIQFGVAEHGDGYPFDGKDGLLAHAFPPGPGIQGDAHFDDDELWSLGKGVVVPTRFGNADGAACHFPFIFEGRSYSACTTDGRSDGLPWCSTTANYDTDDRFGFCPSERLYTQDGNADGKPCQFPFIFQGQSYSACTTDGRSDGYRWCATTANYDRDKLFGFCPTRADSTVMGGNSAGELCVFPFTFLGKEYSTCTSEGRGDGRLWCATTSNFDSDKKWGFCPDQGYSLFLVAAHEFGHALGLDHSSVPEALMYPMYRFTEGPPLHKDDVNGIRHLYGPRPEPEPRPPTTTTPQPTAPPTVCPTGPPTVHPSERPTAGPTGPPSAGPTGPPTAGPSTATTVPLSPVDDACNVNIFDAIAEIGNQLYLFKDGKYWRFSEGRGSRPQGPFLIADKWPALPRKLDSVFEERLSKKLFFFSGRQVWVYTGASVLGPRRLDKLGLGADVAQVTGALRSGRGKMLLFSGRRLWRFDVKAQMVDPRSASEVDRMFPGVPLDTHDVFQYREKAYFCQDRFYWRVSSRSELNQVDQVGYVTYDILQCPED

MMP13 = MMP13 (Homo sapiens, UniProt P45452); test: Off-target metalloprotease inhibition, MMP13; type: biochemical; conditions: read-out: Residual activity MMP13
ADAM10 = molecular target: T4, ADAM10 (Homo sapiens, UniProt O14672); test: Off-target metalloprotease inhibition, ADAM10; type: biochemical; conditions: for remaining activity at 10 µM: read-out: Residual activity ADAM10
T4 sequence (O14672 214-748): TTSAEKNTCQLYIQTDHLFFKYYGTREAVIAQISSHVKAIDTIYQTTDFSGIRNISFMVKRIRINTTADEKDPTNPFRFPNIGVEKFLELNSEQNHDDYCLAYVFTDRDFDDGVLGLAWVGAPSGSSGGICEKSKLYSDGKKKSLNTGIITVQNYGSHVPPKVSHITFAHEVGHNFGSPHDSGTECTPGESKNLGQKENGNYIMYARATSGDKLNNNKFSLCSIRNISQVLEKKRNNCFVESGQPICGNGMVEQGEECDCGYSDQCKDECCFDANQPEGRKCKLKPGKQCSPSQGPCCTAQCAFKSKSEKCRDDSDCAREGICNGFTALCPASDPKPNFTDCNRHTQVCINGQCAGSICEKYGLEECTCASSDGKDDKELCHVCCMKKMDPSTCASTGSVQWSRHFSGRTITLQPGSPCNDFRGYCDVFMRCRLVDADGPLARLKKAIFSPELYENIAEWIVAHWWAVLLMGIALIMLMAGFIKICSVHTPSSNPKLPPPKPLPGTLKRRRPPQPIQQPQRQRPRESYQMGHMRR

ADAM17 = ADAM17 (Homo sapiens, UniProt P78536); test: Off-target metalloprotease inhibition, ADAM17; type: biochemical; conditions: for remaining activity at 10 µM: read-out: Residual activity ADAM17
ADAM17, sequence (P78536 215-824): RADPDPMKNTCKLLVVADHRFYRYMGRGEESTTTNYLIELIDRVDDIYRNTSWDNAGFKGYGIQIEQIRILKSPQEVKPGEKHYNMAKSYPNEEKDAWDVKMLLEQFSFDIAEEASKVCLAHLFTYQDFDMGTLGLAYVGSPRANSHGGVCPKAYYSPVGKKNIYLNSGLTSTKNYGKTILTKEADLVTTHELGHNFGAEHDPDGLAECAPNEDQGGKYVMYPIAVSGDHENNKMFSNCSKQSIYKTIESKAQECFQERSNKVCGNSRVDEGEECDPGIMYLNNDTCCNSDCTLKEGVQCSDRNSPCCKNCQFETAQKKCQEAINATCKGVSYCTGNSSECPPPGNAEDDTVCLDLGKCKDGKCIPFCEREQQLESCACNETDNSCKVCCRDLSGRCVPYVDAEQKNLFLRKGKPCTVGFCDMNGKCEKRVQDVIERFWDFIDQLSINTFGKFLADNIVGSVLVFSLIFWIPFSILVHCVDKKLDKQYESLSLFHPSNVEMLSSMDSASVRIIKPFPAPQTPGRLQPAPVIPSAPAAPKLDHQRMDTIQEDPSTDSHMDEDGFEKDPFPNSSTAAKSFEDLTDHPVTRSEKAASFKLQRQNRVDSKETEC

Cell viability assay [1] = type: cell-based; conditions: human, Hep-G2 cells
Cell viability assay [2] = type: cell-based; conditions: human, SH-SY5Y cells

SMILES	SF: selectivity factor (Ki(app) meprin β/Ki(app) meprin α) (human meprin α)	Ki (human meprin β) [nM]	remaining activity at 10 µM (MMP2) [%]	remaining activity at 10 µM (MMP9) [%]	remaining activity at 10 µM (MMP13) [%]	remaining activity at 10 µM (ADAM10) [%]	remaining activity at 10 µM (ADAM17) [%]	viability at 24 h, 30 µM (Cell viability assay [1]) [%]	viability at 24 h, 30 µM (Cell viability assay [2]) [%]	activity against meprin β dropped by factor (human meprin β; compared to 21i)	Ki (human meprin α) [nM]	IC50 (ADAM17) [nM]	fold improved activity against meprin α (human meprin α; compared to 21e) [fold]	fold increase in potency against meprin β (human meprin β; compared to 21e) [fold]	IC50 (ADAM10) [nM]	IC50 (MMP2) [nM]
O=C(Cc1c(-c2ccccc2)nn(Cc2ccc(Cl)c(O)c2F)c1-c1ccccc1)NO [21i, 2-[1-[(4-Chloro-2-fluoro-3-hydroxy-phenyl)methyl]-3,5-diphenyl-pyrazol-4-yl]ethane-hydroxamic acid]	116	9.3	69	70	84	85	72	107	79							
O=C(CCc1c(-c2ccccc2)nn(Cc2ccc(Cl)c(O)c2F)c1-c1ccccc1)NO [compound 22, 3-[1-[(4-Chloro-2-fluoro-3-hydroxy-phenyl)methyl]-3,5-diphenyl-pyrazol-4-yl]propane-hydroxamic acid]	7892		102	100	98	117	90	100	98	~120						
COc1cccc(-c2n[nH]c(-c3ccccc3)c2CC(=O)NO)c1 [14d, 2-[3-(3-Methoxyphenyl)-5-phenyl-1H-pyrazol-4-yl]ethanehydroxamic acid]	105		78	80	85	68	52	104	84		1.1	11600				
O=C(Cc1c(-c2ccccc2)nn(Cc2cccc(C(=O)O)c2)c1-c1ccccc1)NO [21g, 3-[[4-[2-(Hydroxyamino)-2-oxo-ethyl]-3,5-diphenyl-pyrazol-1-yl]methyl]benzoic acid]	35	10.6	89	83	83	92	84	99	85		0.3		3	30		
O=C(Cc1c([C@H]2CCCC[C@H]2C(=O)O)n[nH]c1-c1ccccc1)NO (relative stereo) [14q, Cis-2-[4-[2-(hydroxyamino)-2-oxo-ethyl]-5-phenyl-1H-pyrazol-3-yl]cyclohexanecarboxylic acid]	127	32.6									0.3					
O=C(Cc1c(-c2ccccc2)nn(-c2ccccc2)c1-c1ccccc1)NO [21b, 2-(1,3,5-Triphenylpyrazol-4-yl)ethanehydroxamic acid]	167	667									4					
COc1ccc(-c2n[nH]c(-c3ccccc3)c2CC(=O)NO)cc1OC [14g, 2-[3-(3,4-Dimethoxyphenyl)-5-phenyl-1H-pyrazol-4-yl]ethanehydroxamic acid]	117		83	90	101	87	65	99	85		0.7					
O=C(Cc1c(-c2cccc(C(=O)O)c2)[nH]nc1[C@H]1CC[C@@H](C(=O)O)CC1)NO [16m, 3-[3-(Cis-4-Carboxycyclohexyl)-4-[2-(hydroxyamino)-2-oxo-ethyl]-1H-pyrazol-5-yl]benzoic acid]	0.7	14.5									21					
O=C(Cc1c(-c2ccc3c(c2)OCO3)n[nH]c1-c1ccc2c(c1)OCO2)NO [16a, 2-[3,5-Bis(1,3-benzodioxol-5-yl)-1H-pyrazol-4-yl]ethanehydroxamic acid]				63		62	57				0.6	9600			12000	
O=C(Cc1c(-c2ccccc2)nn(Cc2ccc3c(c2)OCO3)c1-c1ccccc1)NO [21f, 2-[1-(1,3-Benzodioxol-5-ylmethyl)-3,5-diphenyl-pyrazol-4-yl]ethanehydroxamic acid]	508		77	74	78	69	21	103	88		0.6	2300				
O=C(Cc1c(-c2ccc3c(c2)OCO3)n[nH]c1-c1ccccc1)NO [14f, 2-[3-(1,3-Benzodioxol-5-yl)-5-phenyl-1H-pyrazol-4-yl]ethanehydroxamic acid]	99		41	72	71	59	51	96	90		1.1	7400			13900	5300
Cn1nc(-c2ccccc2)c(CC(=O)NO)c1-c1ccccc1 [21a, 2-(1-Methyl-3,5-diphenyl-pyrazol-4-yl)ethanehydroxamic acid]	87	437									5					
